Laboratory results taken from PubChem BioAssay (NCI).
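Protocol summary: plate cells (96-well), add compound at 5 concentrations, incubate 48 h, interpolate endpoints linearly. TGI marks complete inhibition of growth.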

Experiments:
Experiment in all cases: NCI-60 cell line screen, 48 h
NCI-H522 lung = tested on: NCI-H522 lung
HCT-116 colon = tested on: HCT-116 colon
M19-MEL melanoma = tested on: M19-MEL melanoma
A549 NSCLC = tested on: A549 NSCLC
SF-295 CNS = tested on: SF-295 CNS
HT29 colon = tested on: HT29 colon
UACC-257 melanoma = tested on: UACC-257 melanoma
786-0 renal = tested on: 786-0 renal
EKVX NSCLC = tested on: EKVX NSCLC
HCC-2998 colon = tested on: HCC-2998 colon
OVCAR-5 ovarian = tested on: OVCAR-5 ovarian
CAKI-1 renal = tested on: CAKI-1 renal
ACHN renal = tested on: ACHN renal
SNB-75 CNS = tested on: SNB-75 CNS
NCI-H460 lung = tested on: NCI-H460 lung
UACC-62 melanoma = tested on: UACC-62 melanoma
TK-10 renal = tested on: TK-10 renal
CCRF-CEM leukemia = tested on: CCRF-CEM leukemia
SN12C renal = tested on: SN12C renal
RXF 393 renal = tested on: RXF 393 renal
LOX IMVI melanoma = tested on: LOX IMVI melanoma
SK-MEL-28 melanoma = tested on: SK-MEL-28 melanoma
NCI-H23 lung = tested on: NCI-H23 lung
IGROV1 ovarian = tested on: IGROV1 ovarian
SW-620 colon = tested on: SW-620 colon
MOLT-4 leukemia = tested on: MOLT-4 leukemia
M14 melanoma = tested on: M14 melanoma
HCT-15 colon = tested on: HCT-15 colon
DMS 273 small cell lung = tested on: DMS 273 small cell lung
LXFL 529 NSCLC = tested on: LXFL 529 NSCLC
SF-268 CNS = tested on: SF-268 CNS
KM20L2 colon = tested on: KM20L2 colon
K-562 leukemia = tested on: K-562 leukemia
OVCAR-4 ovarian = tested on: OVCAR-4 ovarian
SK-MEL-2 melanoma = tested on: SK-MEL-2 melanoma
HOP-18 NSCLC = tested on: HOP-18 NSCLC
OVCAR-8 ovarian = tested on: OVCAR-8 ovarian
U251 CNS = tested on: U251 CNS
HL-60(TB) leukemia = tested on: HL-60(TB) leukemia
OVCAR-3 ovarian = tested on: OVCAR-3 ovarian
DLD-1 colon = tested on: DLD-1 colon
KM12 colon = tested on: KM12 colon
SK-MEL-5 melanoma = tested on: SK-MEL-5 melanoma
UO-31 renal = tested on: UO-31 renal
RPMI-8226 leukemia = tested on: RPMI-8226 leukemia
SF-539 CNS = tested on: SF-539 CNS
NCI-H226 lung = tested on: NCI-H226 lung
SNB-78 CNS = tested on: SNB-78 CNS
SK-OV-3 ovarian = tested on: SK-OV-3 ovarian
HOP-92 NSCLC = tested on: HOP-92 NSCLC
DMS 114 small cell lung = tested on: DMS 114 small cell lung
A498 renal = tested on: A498 renal
HOP-62 NSCLC = tested on: HOP-62 NSCLC
MALME-3M melanoma = tested on: MALME-3M melanoma
SNB-19 CNS = tested on: SNB-19 CNS
COLO 205 colon = tested on: COLO 205 colon
SR leukemia = tested on: SR leukemia

CC(C)(C)OC(=O)N1CC(C)(C)N2C(=O)C3(CCCO3)C12 (stereo not given)
TGI (NCI-H522 lung): > 100 µM
TGI (HCT-116 colon): > 100 µM
TGI (M19-MEL melanoma): > 100 µM
TGI (A549 NSCLC): > 100 µM
TGI (SF-295 CNS): > 100 µM
TGI (HT29 colon): > 100 µM
TGI (UACC-257 melanoma): > 100 µM
TGI (786-0 renal): > 100 µM
TGI (EKVX NSCLC): > 100 µM
TGI (HCC-2998 colon): > 100 µM
TGI (OVCAR-5 ovarian): > 100 µM
TGI (CAKI-1 renal): > 100 µM
TGI (ACHN renal): > 100 µM
TGI (SNB-75 CNS): > 100 µM
TGI (NCI-H460 lung): > 100 µM
TGI (UACC-62 melanoma): > 100 µM
TGI (TK-10 renal): > 100 µM
TGI (CCRF-CEM leukemia): > 100 µM
TGI (SN12C renal): > 100 µM
TGI (RXF 393 renal): > 100 µM
TGI (LOX IMVI melanoma): > 100 µM
TGI (SK-MEL-28 melanoma): > 100 µM
TGI (NCI-H23 lung): > 100 µM
TGI (IGROV1 ovarian): > 100 µM
TGI (SW-620 colon): 30.4 µM
TGI (MOLT-4 leukemia): > 100 µM
TGI (M14 melanoma): > 100 µM
TGI (HCT-15 colon): > 100 µM
TGI (DMS 273 small cell lung): > 100 µM
TGI (LXFL 529 NSCLC): > 100 µM
TGI (SF-268 CNS): > 100 µM
TGI (KM20L2 colon): > 100 µM
TGI (K-562 leukemia): > 100 µM
TGI (OVCAR-4 ovarian): > 100 µM
TGI (SK-MEL-2 melanoma): > 100 µM
TGI (HOP-18 NSCLC): > 100 µM
TGI (OVCAR-8 ovarian): > 100 µM
TGI (U251 CNS): > 100 µM
TGI (HL-60(TB) leukemia): > 100 µM
TGI (OVCAR-3 ovarian): > 100 µM
TGI (DLD-1 colon): > 100 µM
TGI (KM12 colon): > 100 µM
TGI (SK-MEL-5 melanoma): > 100 µM
TGI (UO-31 renal): > 100 µM
TGI (RPMI-8226 leukemia): 53.1 µM
TGI (SF-539 CNS): > 100 µM
TGI (NCI-H226 lung): > 100 µM
TGI (SNB-78 CNS): > 100 µM
TGI (SK-OV-3 ovarian): > 100 µM
TGI (HOP-92 NSCLC): > 100 µM
TGI (DMS 114 small cell lung): > 100 µM
TGI (A498 renal): > 100 µM
TGI (HOP-62 NSCLC): > 100 µM
TGI (MALME-3M melanoma): > 100 µM
TGI (SNB-19 CNS): > 100 µM
TGI (COLO 205 colon): > 100 µM

N#CC1(N2CCCC2)CCC2(CC1)OCCO2
TGI (NCI-H522 lung): > 100 µM
TGI (HCT-116 colon): > 100 µM
TGI (M19-MEL melanoma): > 10 µM
TGI (A549 NSCLC): > 100 µM
TGI (SF-295 CNS): > 100 µM
TGI (HT29 colon): > 100 µM
TGI (UACC-257 melanoma): > 100 µM
TGI (786-0 renal): > 100 µM
TGI (EKVX NSCLC): > 100 µM
TGI (HCC-2998 colon): > 100 µM
TGI (OVCAR-5 ovarian): > 100 µM
TGI (CAKI-1 renal): > 100 µM
TGI (ACHN renal): > 100 µM
TGI (SNB-75 CNS): > 100 µM
TGI (NCI-H460 lung): > 100 µM
TGI (SR leukemia): > 100 µM
TGI (UACC-62 melanoma): > 100 µM
TGI (TK-10 renal): > 100 µM
TGI (CCRF-CEM leukemia): > 100 µM
TGI (SN12C renal): > 100 µM
TGI (RXF 393 renal): > 100 µM
TGI (LOX IMVI melanoma): > 100 µM
TGI (SK-MEL-28 melanoma): > 100 µM
TGI (NCI-H23 lung): > 100 µM
TGI (IGROV1 ovarian): > 100 µM
TGI (SW-620 colon): > 100 µM
TGI (MOLT-4 leukemia): > 100 µM
TGI (M14 melanoma): > 100 µM
TGI (HCT-15 colon): > 100 µM
TGI (DMS 273 small cell lung): > 10 µM
TGI (SF-268 CNS): > 100 µM
TGI (KM20L2 colon): > 100 µM
TGI (K-562 leukemia): > 100 µM
TGI (OVCAR-4 ovarian): > 100 µM
TGI (SK-MEL-2 melanoma): > 100 µM
TGI (OVCAR-8 ovarian): > 100 µM
TGI (U251 CNS): > 100 µM
TGI (HL-60(TB) leukemia): > 100 µM
TGI (OVCAR-3 ovarian): > 100 µM
TGI (KM12 colon): > 100 µM
TGI (SK-MEL-5 melanoma): > 100 µM
TGI (UO-31 renal): > 100 µM
TGI (RPMI-8226 leukemia): > 100 µM
TGI (SF-539 CNS): > 100 µM
TGI (NCI-H226 lung): > 100 µM
TGI (SNB-78 CNS): > 100 µM
TGI (SK-OV-3 ovarian): > 100 µM
TGI (HOP-92 NSCLC): > 100 µM
TGI (DMS 114 small cell lung): > 100 µM
TGI (A498 renal): > 100 µM
TGI (HOP-62 NSCLC): > 100 µM
TGI (MALME-3M melanoma): > 100 µM
TGI (SNB-19 CNS): > 100 µM
TGI (COLO 205 colon): > 10 µM
